Data on eight compounds can be found in US11780830B2, “Triazolone derivatives or salts thereof and pharmaceutical compositions comprising the same” (YUHAN CORPORATION, priority 2018, dated 2023).

Structures can show the parent of a compound that is named as a salt.

Common to all, as to assay type: biochemical
For test [1], the target named is T1, recombinant human VAP-1 (Homo sapiens, UniProt Q16853).
T1 construct: purchased R&D systems
T1 sequence (Q16853 1-763): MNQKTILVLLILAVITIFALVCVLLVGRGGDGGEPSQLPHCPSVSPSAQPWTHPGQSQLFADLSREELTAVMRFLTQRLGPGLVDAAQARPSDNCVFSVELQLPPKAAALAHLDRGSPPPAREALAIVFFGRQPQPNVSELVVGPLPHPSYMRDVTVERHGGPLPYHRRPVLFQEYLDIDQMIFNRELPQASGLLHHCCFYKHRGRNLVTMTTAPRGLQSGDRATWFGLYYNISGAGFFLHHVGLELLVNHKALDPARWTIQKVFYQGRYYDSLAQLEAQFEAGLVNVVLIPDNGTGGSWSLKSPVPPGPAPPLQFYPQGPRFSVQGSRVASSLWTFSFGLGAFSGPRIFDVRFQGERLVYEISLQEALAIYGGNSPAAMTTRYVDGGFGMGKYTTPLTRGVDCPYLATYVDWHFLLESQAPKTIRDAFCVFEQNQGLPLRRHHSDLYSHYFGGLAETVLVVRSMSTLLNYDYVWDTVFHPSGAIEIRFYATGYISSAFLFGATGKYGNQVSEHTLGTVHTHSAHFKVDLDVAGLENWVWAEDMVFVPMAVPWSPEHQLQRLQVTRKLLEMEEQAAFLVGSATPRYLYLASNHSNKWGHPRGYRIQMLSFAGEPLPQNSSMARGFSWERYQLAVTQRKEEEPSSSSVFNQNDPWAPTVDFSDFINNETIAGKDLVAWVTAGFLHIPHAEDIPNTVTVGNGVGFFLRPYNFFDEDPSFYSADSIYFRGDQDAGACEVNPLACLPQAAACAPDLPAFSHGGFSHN
In words: Activity on recombinant human VAP-1, HRP-coupled Amplex Red hydrogen peroxide assay. As to conditions: substrate 1 mM benzylamine; compound incubated with enzyme at 37° C. for 30 minutes; pH 7.4; read-out: Inhibitory Activity (IC50, nM) human VAP-1. In short, it runs like this: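 Dose-response IC50 determined from reduction in resorufin signal rate (544/590 nm, 1-2 h), with 30 min compound preincubation at 37 °C and 1 mM benzylamine as substrate.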

Test [2] deals with T2, recombinant human MAO-A (monoamine oxidase-A) (Homo sapiens, UniProt P21397).
T2 construct: purchased Sigma-Aldrich
T2 sequence (P21397 1-527): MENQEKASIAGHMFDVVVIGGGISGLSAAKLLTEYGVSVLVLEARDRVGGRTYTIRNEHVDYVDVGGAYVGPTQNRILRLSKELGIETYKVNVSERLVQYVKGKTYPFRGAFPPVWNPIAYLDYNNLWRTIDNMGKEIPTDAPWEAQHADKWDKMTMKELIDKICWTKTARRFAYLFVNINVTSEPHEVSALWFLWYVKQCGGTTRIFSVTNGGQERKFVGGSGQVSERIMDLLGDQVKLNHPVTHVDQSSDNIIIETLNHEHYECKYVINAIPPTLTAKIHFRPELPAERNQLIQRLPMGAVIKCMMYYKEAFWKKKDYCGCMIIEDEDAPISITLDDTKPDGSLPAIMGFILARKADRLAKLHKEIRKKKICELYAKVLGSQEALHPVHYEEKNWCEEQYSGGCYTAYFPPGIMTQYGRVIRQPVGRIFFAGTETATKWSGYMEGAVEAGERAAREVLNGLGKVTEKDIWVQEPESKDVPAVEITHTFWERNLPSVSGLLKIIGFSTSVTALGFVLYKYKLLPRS
Put plainly: Activity on recombinant human MAO-A, method similar to the VAP-1 assay. Conditions: substrate 0.5 mM tyramine; read-out: Inhibitory Activity (IC50, nM) MAO-A. The procedure, abridged: (§1)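 Amplex Red/HRP coupled read-out of H2O2 with 0.5 mM tyramine for MAO-A or 1 mM benzylamine for MAO-B, following a 30-min compound–enzyme preincubation at 37° C. IC50 from percent inhibition of signal rate relative to uninhibited control.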

Test [3] addresses T3, recombinant human MAO-B (monoamine oxidase-B) (Homo sapiens, UniProt P27338).
T3 construct: purchased Sigma-Aldrich
T3 sequence (P27338 1-520): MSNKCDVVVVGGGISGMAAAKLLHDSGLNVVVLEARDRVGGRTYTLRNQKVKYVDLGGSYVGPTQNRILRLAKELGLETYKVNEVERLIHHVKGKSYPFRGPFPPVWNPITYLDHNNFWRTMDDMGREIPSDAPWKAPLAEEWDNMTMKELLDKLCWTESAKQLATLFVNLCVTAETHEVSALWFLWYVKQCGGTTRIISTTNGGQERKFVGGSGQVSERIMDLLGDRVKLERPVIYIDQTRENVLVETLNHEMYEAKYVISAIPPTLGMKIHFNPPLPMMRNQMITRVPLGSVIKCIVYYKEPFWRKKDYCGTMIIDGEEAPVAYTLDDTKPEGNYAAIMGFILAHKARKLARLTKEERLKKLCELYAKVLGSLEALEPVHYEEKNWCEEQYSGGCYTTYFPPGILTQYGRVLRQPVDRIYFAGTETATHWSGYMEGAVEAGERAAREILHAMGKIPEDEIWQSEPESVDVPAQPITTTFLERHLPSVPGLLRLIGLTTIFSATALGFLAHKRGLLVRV
Put plainly: Activity on recombinant human MAO-B, method similar to the VAP-1 assay. As to conditions: substrate 1 mM benzylamine; read-out: Inhibitory Activity (IC50, nM) MAO-B. In short, it runs like this:
as §1

Test [4] addresses T4, recombinant human DAO (diamine oxidase) (Homo sapiens, UniProt P19801).
T4 construct: purchased R&D systems
T4 sequence (P19801 20-751): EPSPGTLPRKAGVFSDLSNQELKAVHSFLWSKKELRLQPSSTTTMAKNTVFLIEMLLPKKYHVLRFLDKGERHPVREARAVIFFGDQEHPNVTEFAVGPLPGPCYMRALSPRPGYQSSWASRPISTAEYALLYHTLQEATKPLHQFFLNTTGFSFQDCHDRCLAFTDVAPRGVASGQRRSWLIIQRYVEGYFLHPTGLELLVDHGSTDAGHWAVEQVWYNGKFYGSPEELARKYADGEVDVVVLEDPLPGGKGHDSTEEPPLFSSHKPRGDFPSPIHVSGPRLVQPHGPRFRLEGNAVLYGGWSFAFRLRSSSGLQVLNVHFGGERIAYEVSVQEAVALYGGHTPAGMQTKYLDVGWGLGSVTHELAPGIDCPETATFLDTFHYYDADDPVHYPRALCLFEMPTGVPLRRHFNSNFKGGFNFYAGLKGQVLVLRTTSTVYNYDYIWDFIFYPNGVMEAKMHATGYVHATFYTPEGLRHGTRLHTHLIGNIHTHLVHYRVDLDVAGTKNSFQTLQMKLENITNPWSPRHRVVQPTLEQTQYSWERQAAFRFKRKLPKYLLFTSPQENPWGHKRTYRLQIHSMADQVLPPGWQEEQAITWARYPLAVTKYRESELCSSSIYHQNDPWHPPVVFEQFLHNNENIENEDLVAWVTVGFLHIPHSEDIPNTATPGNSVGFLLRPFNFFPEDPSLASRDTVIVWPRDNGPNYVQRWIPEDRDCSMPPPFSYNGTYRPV
Put plainly: Activity on recombinant human DAO, method similar to the VAP-1 assay. As to conditions: substrate 1 mM putrescine; read-out: Inhibitory Activity (IC50, nM) DAO. In short, it runs like this:
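Inhibition of recombinant human diamine oxidase (DAO, R&D systems) was assessed by the same approach as the VAP-1 assay, using 1 mM putrescine as substrate. Hydrogen peroxide formed was detected through an HRP-coupled Amplex Red reaction yielding fluorescent resorufin, read at 544 nm excitation and 590 nm emission. IC50 values came from four-parameter logistic fitting in GraphPad Prism.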

For the compound `NC/C(=C\F)Cn1ncn(Cc2ccc(C#Cc3ccc(N4CCOCC4)nc3)s2)c1=O` [Example 129, 2-[(E)-2-(aminomethyl)-3-fluoro-allyl]-4-[[5-[2-(6-morpholino-3-pyridyl)ethynyl]-2-thienyl]methyl]-1,2,4-triazol-3-one hydrochloride], the IC50 (as a rule, the midpoint of a concentration-inhibition curve) is 0.6 nM in test [1], more than 100000 nM in test [2], 770 nM in test [3] and 360 nM in test [4].
As for `NC/C(=C\F)Cn1ncn(Cc2ccc(-c3ccc(CCO)cc3)s2)c1=O` [Example 171, 2-[(2E)-2-(aminomethyl)-3-fluoroprop-2-en-1-yl]-4-({5-[4-(2-hydroxyethyl)phenyl]thiophen-2-yl}methyl)-2,4-dihydro-3H-1,2,4-triazol-3-one], the IC50 is 2.4 nM in test [1], more than 100000 nM in test [2], 740 nM in test [3] and 16000 nM in test [4].
Turning to `CS(=O)(=O)CCn1cc(-c2ccc(Cn3cnn(C/C(=C/F)CN)c3=O)s2)ccc1=O` [Example 188, 5-[5-({1-[(2E)-2-(aminomethyl)-3-fluoroprop-2-en-1-yl]-5-oxo-1,5-dihydro-4H-1,2,4-triazol-4-yl}methyl)thiophen-2-yl]-1-[2-(methylsulfonyl)ethyl]pyridin-2(1H)-one], the IC50 in test [1] was 4.2 nM; in test [2] it was more than 100000 nM; in test [3] it was more than 10000 nM; in test [4], 450 nM.
Taken in the same sequence, the figures for `NC/C(=C\F)Cn1ncn(Cc2ccc(-c3ccc(N4CCCCC4)nc3)s2)c1=O` [Example 52, 2-[(2E)-2-(aminomethyl)-3-fluoroprop-2-en-1-yl]-4-(5-[6-(piperidin-1-yl)pyridin-3-yl]thiophen-2-ylmethyl)-2,4-dihydro-3H-1,2,4-triazol-3-one hydrochloride] were 0.8 nM, more than 100000 nM, 640 nM and 170 nM.
Taken in the same sequence, the figures for `Cn1cc(-c2ccc(Cn3cnn(C/C(=C/F)CN)c3=O)s2)ccc1=O` [Example 187, 5-[5-({1-[(2E)-2-(aminomethyl)-3-fluoroprop-2-en-1-yl]-5-oxo-1,5-dihydro-4H-1,2,4-triazol-4-yl}methyl)thiophen-2-yl]-1-methylpyridin-2(1H)-one] were 1.3 nM, more than 100000 nM, 1600 nM and 1800 nM.
Regarding `CCn1cc(-c2ccc3sc(Cn4cnn(C/C(=C/F)CN)c4=O)cc3c2)cn1` [Example 214, 2-[(2E)-2-(aminomethyl)-3-fluoroprop-2-en-1-yl]-4-{[5-(1-ethyl-1H-pyrazol-4-yl)-1-benzothiophen-2-yl]methyl}-2,4-dihydro-3H-1,2,4-triazol-3-one], the IC50 is 1.6 nM in test [1], more than 100000 nM in test [2], 2200 nM in test [3] and 1400 nM in test [4].
Taken in the same sequence, the figures for `COC(=O)c1ccc(-c2ccc(Cn3cnn(C/C(=C/F)CN)c3=O)s2)cc1F` [Example 12, methyl 4-[5-(1-[(2E)-2-(aminomethyl)-3-fluoroprop-2-en-1-yl]-5-oxo-1,5-dihydro-4H-1,2,4-triazol-4-ylmethyl)thiophen-2-yl]-2-fluorobenzoate hydrochloride] were 1.8 nM, more than 100000 nM, 110 nM and 200 nM.
Taken in the same sequence, the figures for `CN1CCOc2cc(-c3ccc(Cn4cnn(C/C(=C/F)CN)c4=O)s3)ccc21` [Example 103, 2-[(2E)-2-(aminomethyl)-3-fluoroprop-2-en-1-yl]-4-[5-(4-methyl-3,4-dihydro-2H-1,4-benzoxazin-7-yl)thiophen-2-yl]methyl-2,4-dihydro-3H-1,2,4-triazol-3-one hydrochloride] were 3.2 nM, 15000 nM, 1500 nM and 1100 nM.
